Among the data in ChEMBL document CHEMBL2385000, “Design, synthesis and biological evaluation of indeno[1,2-d]thiazole derivatives as potent histone deacetylase inhibitors” (Bioorg Med Chem Lett, 2013) are GI50, inhibition and IC50 values, retold here.

The test system of one test is MCF7. In words: Cytotoxicity against human MCF7 cells after 48 hrs by Sulforhodamine B assay. The format is functional. (In general: Sulforhodamine B stains cellular protein and so reports cell mass.)
In the next test the test system is HCT-116. The test is described as follows: Cytotoxicity against human HCT116 cells after 48 hrs by Sulforhodamine B assay. It is filed as functional.
Test [1] deals with T1, Histone deacetylase (Homo sapiens) (UniProt Q13547+O15379+Q9UBN7+Q92769+Q9UQL6+Q8WUI4+Q9BY41+Q96DB2+P56524+Q9UKV0+Q969S8). Particulars: HeLa, at 10 µM.
Description: Inhibition of HDAC in human HeLa cells using Fluor de Lys as substrate at 10 uM by fluorescence assay
The target in another test is Histone deacetylase. The test is described as follows: Inhibition of HDAC in human HeLa cells using Fluor de Lys as substrate by fluorescence assay. It is filed as cell-based.
The target in test [2] is T1, Histone deacetylase (Homo sapiens). Particulars: HeLa, at 1 µM.
Description: Inhibition of HDAC in human HeLa cells using Fluor de Lys as substrate at 1 uM by fluorescence assay

Usually GI50 stands for the concentration at which growth is held to half of that of the control. Higher therefore signals less potent growth inhibition. With `O=C(CCCCCCC(=O)Nc1ccccc1)NO` [VORINOSTAT], the GI50 in the test with MCF7 came to 689 nM; with HCT-116 it was 878 nM.

In general, inhibition refers to the share of the control response that was lost under treatment. As usually defined, the IC50 is the concentration needed to halve the response being measured. A lower IC50 goes with higher potency. As to `O=C(/C=C/c1ccc2c(c1)Cc1sc(NCCN3CCOCC3)nc1-2)NO`, the GI50 came out at 2060 nM in the test with MCF7 (Homo sapiens, MCF7, 48 h) and 1320 nM with HCT-116 (Homo sapiens, HCT-116, 48 h). Moreover, the inhibition in test [1] was 97.2%; in test [2], 66.9%. Also, the IC50 against Histone deacetylase came to 164 nM.

Take `COc1ccc(CNc2nc3c(s2)Cc2cc(/C=C/C(=O)NO)ccc2-3)cc1`: the inhibition was 86.2% in test [1] and 10.7% in test [2].

As to `O=C(/C=C/c1ccc2c(c1)Cc1sc(Nc3ccccc3)nc1-2)NO`, the inhibition amounted to 95.3% in test [1] and 20.7% in test [2].

With `CN(C)c1nc2c(s1)Cc1cc(/C=C/C(=O)NO)ccc1-2`, the GI50 in the test on MCF7 (Homo sapiens, MCF7, 48 h) is 1260 nM; in the test on HCT-116 (Homo sapiens, HCT-116, 48 h), 1620 nM. Also, the inhibition was found to be 97% in test [1] and 71.7% in test [2]. The same compound yielded an IC50 at Histone deacetylase of 157 nM.

Regarding `O=C(/C=C/c1ccc2c(c1)Cc1sc(Nc3cccc(C(F)(F)F)c3)nc1-2)NO`, the inhibition in test [1] is 86.3%; in test [2], 22.9%.

On to `CC(C)(C)Nc1nc2c(s1)Cc1cc(/C=C/C(=O)NO)ccc1-2`, for which the inhibition in test [1] was found to be 95.3%; in test [2], 39.8%.

Take `COCCNc1nc2c(s1)Cc1cc(/C=C/C(=O)NO)ccc1-2`: the GI50 was determined as 869 nM in the test with MCF7 (Homo sapiens, MCF7, 48 h) and 535 nM in the test on HCT-116 (Homo sapiens, HCT-116, 48 h). The inhibition in test [1] was 97.4%; in test [2], 71.6%. The compound also returned an IC50 on Histone deacetylase of 140 nM.

On to `O=C(/C=C/c1ccc2c(c1)Cc1sc(Nc3cccnc3)nc1-2)NO`, for which the GI50 with MCF7 (Homo sapiens, MCF7, 48 h) worked out at 1580 nM; with HCT-116 (Homo sapiens, HCT-116, 48 h) it was 2430 nM. For the same compound, the values for the inhibition in test [1] and in test [2] were 96.5% and 62%, respectively. Besides, the IC50 against Histone deacetylase turned out to be 298 nM.

With `Cc1ccc(Nc2nc3c(s2)Cc2cc(/C=C/C(=O)NO)ccc2-3)cc1`, the inhibition in test [1] was 95.9%; in test [2] it was 7.71%.

As for `CCCNc1nc2c(s1)Cc1cc(/C=C/C(=O)NO)ccc1-2`, the inhibition in test [1] came out at 93.3%; in test [2] it was 52.7%.

As for `O=C(/C=C/c1ccc2c(c1)Cc1sc(Nc3ccc(F)cc3F)nc1-2)NO`, the values for the inhibition in test [1] and in test [2] were 92.3% and 21.6%, respectively.

Turning to `COc1ccc(Nc2nc3c(s2)Cc2cc(/C=C/C(=O)NO)ccc2-3)cc1`, the inhibition in test [1] was 95.5%; in test [2], 45.1%.

Take `O=C(/C=C/c1ccc2c(c1)Cc1sc(NC3CCCCC3)nc1-2)NO`: the figures for the inhibition in test [1] and in test [2] were 93.6% and 24.8%, respectively.

Take `O=C(/C=C/c1ccc2c(c1)Cc1sc(Nc3ccccn3)nc1-2)NO`: the inhibition in test [1] stood at 77.7%; in test [2], 25.5%.

Consider `CNc1nc2c(s1)Cc1cc(/C=C/C(=O)NO)ccc1-2`, for which the GI50 with MCF7 (Homo sapiens, MCF7, 48 h) is 1390 nM; with HCT-116 (Homo sapiens, HCT-116, 48 h), 1860 nM.

For the compound `O=C(/C=C/c1ccc2c(c1)Cc1sc(Nc3ccc(Cl)cc3)nc1-2)NO`, the inhibition was 95.3% in test [1] and 35.8% in test [2].

On to `O=C(/C=C/c1ccc2c(c1)Cc1sc(Nc3ccncc3)nc1-2)NO`, for which the inhibition in test [1] came to 93.9%; in test [2], 10.2%.

Turning to `Cc1cc(C)c(Nc2nc3c(s2)Cc2cc(/C=C/C(=O)NO)ccc2-3)c(C)c1`, the inhibition came to 90% in test [1] and 28.1% in test [2].

For the compound `CC(C)Nc1nc2c(s1)Cc1cc(/C=C/C(=O)NO)ccc1-2`, the GI50 amounted to 1210 nM in the test on MCF7 (Homo sapiens, MCF7, 48 h) and 2100 nM in the test on HCT-116 (Homo sapiens, HCT-116, 48 h). The inhibition in test [1] worked out at 97.5%; in test [2] it was 61.3%. The compound further showed a 50% inhibitory concentration (IC50) against Histone deacetylase of 214 nM.
